Data published in patent US20160089545A1, “METHODS AND APPARATUS FOR DELIVERY OF MOLECULES ACROSS LAYERS OF TISSUE” (EP Technologies LLC, priority 2013, published 2016).
Like-named read-outs stand apart in the source and are kept apart here.

Protocol: In this example, a vertical Franz diffusion apparatus (PermeGear Inc, PA) was used for all transport studies. Human skin samples with intact stratum corneum (SC) from back and thigh region were used, which were split thickness (dermatome 250 μm). The skin was kept at −80° C. until the day of treatment. On the day of treatment the skin was thawed to room temperature and kept in a humidified box for 1 hour. The skin was washed with water and pat-dried with paper towels. The skin was cut in to 1″×1″ pieces and was placed between the donor and receiver compartments with temperature maintained at 37±1° C. using water circulator. Effective surface area for transport studies were kept constant at 1.77 cm^2. The receiver compartment was filled with 10 mL of freshly prepared phosphate buffered saline (PBS) (pH 7.4) and donor compartment with 0.5-1.0 mL of permeant solution. One mL samples were withdrawn from the receiver compartment at pre-determined time points and estimated for propofol using high performance liquid chromatography.
In vitro permeation studies were carried out using the experimental setup described above. Drugs reconstituted in water or buffer at 10 mg/mL concentration in the donor compartment was used for transport studies across the human skin, Permeation studies were carried out for a period of 3-6 h and samples were analyzed for using HPLC technique.
In some experiments, the human skin was treated with non-thermal DBD plasma for periods of time up to about 1 min and the following plasma power source parameters were varied: the frequency (Hz) was varied between about 100 and about 3500 Hz, the voltage was varied from about 11 kV to 20 kV, the pulse duration was varied between about 1 and about 10 μs, the duty cycle was varied between about 1 to about 100%, and the time of treatment ranged from between about 0.5 to about 1 minutes. […] Three different runs were carried out, the first in which the plasma generator was operated with a frequency of 2500 Hz, pulse duration of 1 μs, voltage of 15 kV and 100% duty cycle (which corresponds to setting 7100 in FIG. 10), the second with the plasma generator operated with a frequency of 2500 Hz, pulse duration of 5 μs, voltage of 17 kV and 100% duty cycle (which corresponds to setting 7500 in FIG. 10), and the third with the plasma generator operated with frequency of 3500 Hz, pulse duration of 5 μs, voltage of 19 kV and 100% duty cycle (which corresponds to setting 9500 in FIG. 10). A fourth control run was also carried out in which the skin sample was not subjected to plasma treatment before being contacted with the nicotine-containing test formulation.

## Cn1c(=O)c2c(ncn2C)n(C)c1=O [caffeine]
human, 4 h, 10 mg/mL, pH 7.4
  factor of enhancement of transdermal delivery as compared with the control: approximately 7

## O=C(O)Cc1ccccc1Nc1c(Cl)cccc1Cl [diclofenac sodium]
human, 4 h, 10 mg/mL, pH 7.4
  factor of enhancement of transdermal delivery: approximately 2
human, 4 h, pH 7.4
  factor of enhancement of transdermal delivery: about 4

## CN1CCCC1c1cccnc1 (stereo not shown) [nicotine]
3 hour permeation period, 3500 Hz, pulse duration 5 μs, 19 kV, 100% duty cycle (setting 9500)
  factor of enhancement of transdermal delivery as compared with the control: approximately 33
